The text below walks through data of patent publication US20240025919A1, “AZA-TETRACYCLIC OXAZEPINE COMPOUNDS AND USES THEREOF” (Genentech, Inc., priority 2022, published 2024).

One test addresses KRAS G12D (Homo sapiens (Human), UniProt P01116, G12D). The test can be described thus: KRAS G12D LoEnz Biochemical Assay, BODIPY-GDP Exchange TR-FRET (SOS1-mediated nucleotide exchange). As to conditions: read-out: KRas (G12D) GDP HTRF IC50. As to the method: Example 500: KRAS G12D LoEnz Biochemical Assay, BODIPY-GDP Exchange TR-FRET. Biochemical compound potencies are assessed by evaluating inhibition of SOS1I-mediated nucleotide exchange in KRAS G121D. In this assay, the SOS1-promoted exchange of fluorescently-labeled GDP (BOPIDY-GDP) is monitored by time-resolved fluorescence resonance energy transfer (TR-FRET). Compounds solubilized in DMS0 are dispensed as concentration series into 384-well white assay plates. A preformed complex of biotin-tagged recombinant human KRAS (0.06 nM mutant G1 2D) and 0.06 nM terbium-labeled streptavidin (CisBIO) prepared in 10 uL/well assay buffer (20 mM HEPES, pH 7.5, 50 mM NaCl, 10 mMMMgCl2, 0.0100 Tween-20 and 1 mM dithiothreitol) is added and allowed to incubate for 10-minutes at room temperature. The reaction is initiated with the addition of 5 uL 300 nM recombinant human SOS1 and 300 nM BODIPY-GDP in assay buffer. After a 120-minute incubation, the fluorescence is measured with excitation at 337 nm and emission at 490 and 520 nm. The TR-FRET ratio is determined as the fluorescence at 520 nm divided by the fluorescence at 490 nm multiplied by 10,000. The results are normalized to percent inhibition based on control samples: DMSO (0% inhibition) and control compound at a concentration that inhibits completely (100% inhibition). The normalized TR-FRET results are plotted against compound concentration, and the data are fit to a 4-parameter Hill equation to determine the IC50 values.

Another test deals with KRAS WT (Homo sapiens (Human), UniProt P01116). The test can be described thus: KRAS WT Biochemical Assay, BODIPY-GDP Exchange TR-FRET (Example 501; 3 nM KRAS WT, 3 nM SOS1, 60-minute incubation). As to the method: Example 501: KRAS WT Biochemical Assay, BODIPY-GDP Exchange TR-FRET. Biochemical compound potencies are assessed by evaluating inhibition of SOS1-mediated nucleotide exchange in KRAS WT. In this assay, the SOS1-promoted exchange of fluorescently-labeled GDP (BOPIDY-GDP) is monitored by time-resolved fluorescence resonance energy transfer (TR-FRET). Compounds solubilized in DMSO are dispensed as concentration series into 384-well white assay plates, and 5 uL assay buffer (20 mM HEPES, pH 7.5, 50 mM NaCl, 10 mM MgCl2, 0.01% Tween-20 and 1 mM dithiothreitol) is added just prior to the start of the assay. A preformed complex of 3 nM biotin-tagged recombinant human KRAS WT and 0.3 nM terbium-labeled streptavidin (CisBIO) prepared in 5 uL/well assay buffer is added and allowed to incubate for 10-minutes at room temperature. The reaction is initiated with the addition of 5 uL 3 nM recombinant human SOS1 and 300 nM BODIPY-GDP in assay buffer. After a 60-minute incubation, the fluorescence is measured with excitation at 337 nm and emission at 490 and 520 nm. The TR-FRET ratio is determined as the fluorescence at 520 nm divided by the fluorescence at 490 nm multiplied by 10,000. The results are normalized to percent inhibition based on control samples: DMSO (0% inhibition) and control compound at a concentration that inhibits completely (100% inhibition). The normalized TR-FRET results are plotted against compound concentration, and the data are fit to a 4-parameter Hill equation to determine the IC50 values.
On the technique in general: In TR-FRET formats the signal depends on donor and acceptor labels being close together.

[1] abbreviates: read-out: KRas(wt) GDP HTRF IC50.

Where two headings read alike, the source gives them in different places.

Chain of KRAS WT (P01116-2 other isoform, or with tags, fused parts or gaps): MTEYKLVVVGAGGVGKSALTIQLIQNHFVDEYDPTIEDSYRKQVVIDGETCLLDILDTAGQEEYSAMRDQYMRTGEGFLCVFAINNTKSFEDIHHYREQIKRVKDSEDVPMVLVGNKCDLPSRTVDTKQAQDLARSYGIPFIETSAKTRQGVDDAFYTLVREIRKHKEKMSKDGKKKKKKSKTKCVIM
Chain of KRAS G12D (P01116-2 other isoform, or with tags, fused parts or gaps G12D): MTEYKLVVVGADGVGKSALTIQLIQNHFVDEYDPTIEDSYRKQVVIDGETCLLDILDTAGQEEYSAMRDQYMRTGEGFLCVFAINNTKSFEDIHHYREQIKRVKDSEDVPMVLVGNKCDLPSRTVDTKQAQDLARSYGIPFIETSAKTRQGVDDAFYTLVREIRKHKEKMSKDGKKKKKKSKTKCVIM

Broadly, the IC50 is the concentration needed to halve the response being measured. In the case of `Cc1cc(N)c(F)c(-c2nc3c4c(nc(OCC5(CN6CCOCC6)CC5)nc4c2F)N2C[C@H]4CC[C@H](N4)[C@H]2[C@H](C)O3)c1C(F)(F)F` [Compound 226, 2-Fluoro-3-((5S,5aS,6S,9R)-1-fluoro-5-methyl-12-((1-(morpholinomethyl)cyclopropyl)methoxy)-5a,6,7,8,9,10-hexahydro-5H-4-oxa-3,10a,11,13,14-pentaaza-6,9-methanonaphtho[1,8-ab]heptalene-2-yl)-5-methyl-4-(trifluoromethyl)aniline], the half-maximal inhibitory concentration (IC50) at KRAS G12D came to 0.4 nM; at KRAS WT (read-out: KRas HTRF IC50), 8.11 nM.

`Cc1c(F)c(N)c(F)c(-c2nc3c4c(nc(OC[C@@]56CCCN5C[C@H](F)C6)nc4c2F)N2C[C@H]4CC[C@H](N4)[C@H]2[C@H](C)O3)c1I` [Compound 204, 2,6-Difluoro-3-((5S,5aS,6S,9R)-1-fluoro-12-(((2R,7aS)-2-fluorotetrahydro-1H-pyrrolizin-7a(5H)-yl)methoxy)-5-methyl-5a,6,7,8,9,10-hexahydro-5H-4-oxa-3,10a,11,13,14-pentaaza-6,9-methanonaphtho[1,8-ab]heptalen-2-yl)-4-iodo-5-methylaniline]: the values for the IC50 on KRAS G12D and on KRAS WT (read-out: KRas HTRF IC50) were 0.385 nM and 69.1 nM, respectively.

In the case of `Cc1nc(N)cc(-c2nc3c4c(nc(OCC5(CN6CC7CCC(C6)O7)CC5)nc4c2F)N2C[C@H]4CC[C@H](N4)[C@H]2[C@H](C)O3)c1C(F)(F)F` [Compound 207, 4-((5S,5aS,6S,9R)-12-((1-((8-oxa-3-azabicyclo[3.2.1]octan-3-yl)methyl)cyclopropyl)methoxy)-1-fluoro-5-methyl-5a,6,7,8,9,10-hexahydro-5H-4-oxa-3,10a,11,13,14-pentaaza-6,9-methanonaphtho[1,8-ab]heptalene-2-yl)-6-methyl-5-(trifluoromethyl)pyridin-2-amine], the IC50 on KRAS G12D came out at 0.36 nM; on KRAS WT (read-out: KRas HTRF IC50) it was 43.1 nM.

As for `Cc1cc(-c2nc3c4c(nc(OC[C@@]56CCCN5C[C@H](F)C6)nc4c2F)N2C[C@H]4CC[C@H](N4)[C@H]2[C@H](C)O3)c(F)c(N)c1F` [Compound 18, 2,6-difluoro-3-((5S,5aS,6S,9R)-1-fluoro-12-(((2R,7aS)-2-fluorotetrahydro-1H-pyrrolizin-7a(5H)-yl)methoxy)-5-methyl-5a,6,7,8,9,10-hexahydro-5H-4-oxa-3,10a,11,13,14-pentaaza-6,9-methanonaphtho[1,8-ab]heptalen-2-yl)-5-methylaniline], the figures for the IC50 on KRAS G12D and at KRAS WT (setting [1]) were 175 nM and 7850 nM, respectively.

Turning to `C[C@@H]1Oc2nc(-c3cc(N)nc(C(F)F)c3C(F)(F)F)c(F)c3nc(OC[C@@]45CCCN4C[C@H](F)C5)nc(c23)N2C[C@H]3CC[C@H](N3)[C@@H]12` [Compound 260, 6-(Difluoromethyl)-4-((5S,5aS,6S,9R)-1-fluoro-12-(((2R,7aS)-2-fluorotetrahydro-1H-pyrrolizin-7a(5H)-yl)methoxy)-5-methyl-5a,6,7,8,9,10-hexahydro-5H-4-oxa-3,10a,11,13,14-pentaaza-6,9-methanonaphtho[1,8-ab]heptalen-2-yl)-5-(trifluoromethyl)pyridin-2-amine], the values for the IC50 at KRAS G12D and at KRAS WT (read-out: KRas HTRF IC50) were 0.28 nM and 26.2 nM, respectively.

In the case of `C[C@@H]1Oc2nc(-c3cccc4cccc(Cl)c34)c(F)c3nc(OC[C@@]45CCCN4C[C@H](F)C5)nc(c23)N2C[C@H]3CC[C@H](N3)[C@@H]12` [Compound 8, (5S,5aS,6S,9R)-2-(8-chloronaphthalen-1-yl)-1-fluoro-12-(((2R,7aS)-2-fluorotetrahydro-1H-pyrrolizin-7a(5H)-yl)methoxy)-5-methyl-5a,6,7,8,9,10-hexahydro-5H-4-oxa-3,10a,11,13,14-pentaaza-6,9-methanonaphtho[1,8-ab]heptalene], the IC50 on KRAS G12D was determined as 1.78 nM; at KRAS WT (setting [1]), 146 nM.

In the case of `Cc1nc(N)c(F)c(-c2nc3c4c(nc(OCC5(CN6CCOCC6)CC5)nc4c2F)N2C[C@H]4CC[C@H](N4)[C@H]2[C@H](C)O3)c1C(F)(F)F` [Compound 219, 3-Fluoro-4-((5S,5aS,6S,9R)-1-fluoro-5-methyl-12-((1-(morpholinomethyl)cyclopropyl)methoxy)-5a,6,7,8,9,10-hexahydro-5H-4-oxa-3,10a,11,13,14-pentaaza-6,9-methanonaphtho[1,8-ab]heptalen-2-yl)-6-methyl-5-(trifluoromethyl)pyridin-2-amine], the IC50 on KRAS G12D came out at 0.46 nM; on KRAS WT (read-out: KRas HTRF IC50), 47.3 nM.

Turning to `Cc1c(F)c(N)cc(-c2nc3c4c(nc(OC[C@@]56CCCN5C[C@H](F)C6)nc4c2F)N2C[C@H]4CC[C@H](N4)[C@H]2C(CF)O3)c1C(F)(F)F` (stereo partly drawn) [Compound 239, 2-Fluoro-5-((5aS,6S,9R)-1-fluoro-5-(fluoromethyl)-12-(((2R,7aS)-2-fluorotetrahydro-1H-pyrrolizin-7a(5H)-yl)methoxy)-5a,6,7,8,9,10-hexahydro-5H-4-oxa-3,10a,11,13,14-pentaaza-6,9-methanonaphtho[1,8-ab]heptalen-2-yl)-3-methyl-4-(trifluoromethyl)aniline], the IC50 is 0.58 nM on KRAS G12D and 0.94 nM on KRAS WT (read-out: KRas HTRF IC50).

In the case of `Cc1nc(N)cc(-c2nc3c4c(nc(OCC5(CN6CC7COCC7C6)CC5)nc4c2F)N2C[C@H]4CC[C@H](N4)[C@H]2[C@H](C)O3)c1C(F)(F)F` (stereo partly drawn) [Compound 205, 4-((5S,5aS,6S,9R)-1-Fluoro-5-methyl-12-((1-((tetrahydro-1H-furo[3,4-c]pyrrol-5(3H)-yl)methyl)cyclopropyl)methoxy)-5a,6,7,8,9,10-hexahydro-5H-4-oxa-3,10a,11,13,14-pentaaza-6,9-methanonaphtho[1,8-ab]heptalen-2-yl)-6-methyl-5-(trifluoromethyl)pyridin-2-amine], the half-inhibitory concentration (IC50) turned out to be 3.39 nM on KRAS G12D and 8.61 nM on KRAS WT (read-out: KRas HTRF IC50).

Take `Cc1nc(N)cc(-c2nc3c4c(nc(OCC5(CN6CC7CCC6CO7)CC5)nc4c2F)N2C[C@H]4CC[C@H](N4)[C@H]2[C@H](C)O3)c1C(F)(F)F` [Compound 211, 4-((5S,5aS,6S,9R)-12-((1-((2-Oxa-5-azabicyclo[2.2.2]octan-5-yl)methyl)cyclopropyl)methoxy)-1-fluoro-5-methyl-5°,6,7,8,9,10-hexahydro-5H-4-oxa-3,10°,11,13,14-pentaaza-6,9-methanonaphtho[1,8-ab]heptalen-2-yl)-6-methyl-5-(trifluoromethyl)pyridin-2-amine]: the IC50 on KRAS G12D worked out at 0.21 nM; at KRAS WT (read-out: KRas HTRF IC50) it was 17.8 nM.

For the molecule `Cc1nc(N)cc(-c2nc3c4c(nc(OCC56CCN5CC(F)(F)C6)nc4c2F)N2C[C@H]4CC[C@H](N4)[C@H]2[C@H](C)O3)c1C(F)(F)F` (stereo partly drawn) [Compound 214, 4-((5S,5aS,6S,9R)-12-((3,3-Difluoro-1-azabicyclo[3.2.0]heptan-5-yl)methoxy)-1-fluoro-5-methyl-5°,6,7,8,9,10-hexahydro-5H-4-oxa-3,10°,11,13,14-pentaaza-6,9-methanonaptho[1,8-ab]heptalen-2-yl)-6-methyl-5-(trifluoromethyl)pyridin-2-amine], the values for the half-inhibitory concentration (IC50) at KRAS G12D and on KRAS WT (read-out: KRas HTRF IC50) were 0.42 nM and 55.7 nM, respectively.

Turning to `C[C@@H]1Oc2nc(-c3cccc(N)c3F)c(F)c3nc(OC[C@@]45CCCN4C[C@H](F)C5)nc(c23)N2C[C@H]3CC[C@H](N3)[C@@H]12` [Compound 12, 2-fluoro-3-((5S,5aS,6S,9R)-1-fluoro-12-(((2R,7aS)-2-fluorotetrahydro-1H-pyrrolizin-7a(5H)-yl)methoxy)-5-methyl-5a,6,7,8,9,10-hexahydro-5H-4-oxa-3,10a,11,13,14-pentaaza-6,9-methanonaphtho[1,8-ab]heptalen-2-yl)aniline], the IC50 on KRAS G12D was determined as 379 nM; on KRAS WT (setting [1]), 37400 nM.
